# Results as given in patent US10092589B2, “Anti-tumor agent containing anti-tumor platinum complex, and anti-tumor effect enhancer” (Taiho Pharmaceutical Company Limited, priority 2014, dated 2018).
# Marks after values point to notes of the source that are not given here.
# Key:
# [1] = Cisplatin tolerability (body weight) in KM20C-transplanted mice (Reference Example 2); format: in vivo, BALB/cA Jcl-nu mice
# Procedure: To BALB/cA Jcl-nu mice (8 mice in each group) to which a human colon cancer cell line KM20C had been transplanted, cisplatin was administered through the tail vein on Day 1 and Day 8. At a dose of 7 mg/kg/day, body weight reduction was 20% or less, and this dose was feasible. Accordingly, the recommended dose of cisplatin (CDDP) for mice was 7 mg/kg/day.
# [2] = test system: human lung cancer cell line (Lu-134); test: Lu-134 xenograft, FTD·TPI combination drug and cisplatin (Example 1); format: in vivo; conditions: Day 29, tail vein Day 1 and Day 8
# Procedure: A human lung cancer cell line (Lu-134) was transplanted to the right chest of 5 to 6-week-old BALB/cA Jcl-nu mice. After the tumor transplantation, the long diameter (mm) and the short diameter (mm) of the tumor were measured, and the tumor volume (TV) was calculated.
# (§1) The FTD⋅TPI combination drug (a mixture of FTD and TPI at a molar ratio of 1:0.5) was prepared for administration at doses of 75 and 150 mg/kg/day in terms of FTD. Cisplatin (Randa inj., Nippon Kayaku Co., Ltd) was prepared for administration at doses of 3.5 and 7 mg/kg/day. The FTD⋅TPI combination drug was orally administered on Days 1 to 14 consecutively, and cisplatin was administered through the tail vein on Day 1 and Day 8. In the combination administration groups, the doses and administration schedules of the FTD⋅TPI combination drug and cisplatin were the same as those of the corresponding monotherapy groups.
# (§2) As an index of the anti-tumor effect, the TVs on Days 5, 8, 11, 15, 19, 22, 26, and 29 were calculated in each group. In accordance with the following equation, the relative tumor volume (RTV) to that on Day 0 was calculated and compared with the RTV of the untreated group (control).
# TV(mm^3)=(long diameter×short diameter^2)/2 RTV=(TV on Day 29)/(TV on Day 0)
# (§3) The tumor growth inhibition rate (IR) on Day 29 on the basis of RTV values was calculated in accordance with the following equation. IR(%)=[1−(mean RTV value of treated group)/(mean RTV value of control group)]×100
# To evaluate body weight reduction as an index of side effects, body weights were measured in each group on each measurement day.
# [3] = Oxaliplatin tolerability in mice with no cancer (Reference Example 4); format: in vivo, BALB/cA Jcl-nu mice; conditions: tail vein, Day 1 and Day 8
# Procedure: To BALB/cA Jcl-nu mice with no cancer (4 mice in each group), oxaliplatin (l-OHP) was administered at 10, 12, 15, or 22.5 mg/kg/day through the tail vein on Day 1 and Day 8. In the groups treated with the doses of 15 mg/kg/day or more, strong body weight reductions of 20% or more were observed. The recommended dose of oxaliplatin for mice was thus 12 mg/kg/day.
# [4] = test system: human colon cancer cell strain (KM20C); test: KM20C xenograft, FTD·TPI combination drug and oxaliplatin (Example 3-1); format: in vivo; conditions: Day 15, tail vein Day 1 and Day 8
# Procedure: as §2
# IR(%)=[1−(mean RTV value of treated group)/(mean RTV value of control group)]×100
# In a similar manner to that in Example 1, to BALB/cA Jcl-nu mice to which a human colon cancer cell strain (KM20C) had been transplanted, the FTD⋅TPI combination drug or oxaliplatin alone, or a combination of the two was administered, and enhancement of the anti-tumor effect was examined.
# as §1, with “FTD. Oxaliplatin (Eloxatin, Sanofi-Aventis)” for “FTD. Cisplatin (Randa inj., Nippon Kayaku Co., Ltd)”, “of 6” for “of 3.5”, “and 12” for “and 7”, “and oxaliplatin” for “and cisplatin”, “groups. The TV and body weight of each group were measured on Days 4, 7, 10, and 15, and the anti-tumor effect and side effects were evaluated.” for “groups.”
# [5] = test system: human colon cancer cell strain (SW48); test: SW48 xenograft, FTD·TPI combination drug and oxaliplatin (Example 3-2); format: in vivo; conditions: tail vein Day 1 and Day 8; for IR (tumor growth inhibition rate) / RTV (mean ± SD): Day 29
# Procedure: In a similar manner to that in Example 1, to BALB/cA Jcl-nu mice to which a human colon cancer cell strain (SW48) had been transplanted, the FTD⋅TPI combination drug or oxaliplatin alone, or a combination of the two was administered, and enhancement of the anti-tumor effect was examined.
# (§4) The FTD⋅TPI combination drug (a mixture of FTD and TPI at a molar ratio of 1:0.5) was prepared for administration at a dose of 150 mg/kg/day in terms of FTD. Oxaliplatin (Eloxatin, Sanofi-Aventis) was prepared for administration at doses of 7 and 12 mg/kg/day. The FTD⋅TPI combination drug was orally administered on Days 1 to 14 consecutively, and oxaliplatin was administered through the tail vein on Day 1 and Day 8. In the combination administration groups, the doses and administration schedules of the FTD⋅TPI combination drug and oxaliplatin were the same as those of the corresponding monotherapy groups. The TV and body weight of each group were measured on Days 3, 7, 11, 15, 18, 22, 25, and 29, and the anti-tumor effect and side effects were evaluated.
# The number of days that elapsed until the tumor volume reached 5 times that on Day 0 (RTV5) was determined, and the growth delay effect was evaluated (Cancer Chemother Pharmacol 57: 709-718, 2006; Int J Radiat Oncol Biol Phys 86 (3): 469-76, 2013).
# [6] = test system: human gastric cancer cell line (MKN74); test: MKN74 xenograft, FTD·TPI combination drug and oxaliplatin (Example 3-3); format: in vivo; conditions: tail vein Day 1 and Day 8; for IR (tumor growth inhibition rate) / RTV (mean ± SD): Day 29
# Procedure: In a similar manner to that in Example 1, to BALB/cA Jcl-nu mice to which a human gastric cancer cell line (MKN74) was transplanted, the FTD⋅TPI combination drug or oxaliplatin alone, or a combination of the two was administered, and enhancement of the anti-tumor effect was examined.
# as §4
# (§5) The number of days that elapsed until the tumor volume reached 5 times that on Day 0 (RTV5) was determined, and the growth delay effect was evaluated.
# [7] = test system: human gastric cancer cell line (MKN74/5-FU), 5-FU resistant; test: MKN74/5-FU xenograft, FTD·TPI combination drug and oxaliplatin (Example 3-4); format: in vivo; conditions: tail vein Day 1 and Day 8; for IR (tumor growth inhibition rate) / RTV (mean ± SD): Day 29
# Procedure: In a similar manner to that in Example 1, to BALB/cA Jcl-nu mice to which a human gastric cancer cell line (MKN74/5-FU) that is a 5-FU resistant cell line had been transplanted, the FTD⋅TPI combination drug or oxaliplatin alone, or a combination of the two was administered, and enhancement of the anti-tumor effect was examined.
# as §4, §5
# [8] = Carboplatin tolerability in mice with no cancer (Reference Example 3); format: in vivo, BALB/cA Jcl-nu mice; conditions: tail vein, Day 1
# Procedure: To BALB/cA Jcl-nu mice with no cancer (5 mice in each group), carboplatin (CBDCA) was administered at 50, 70, 100, 140, or 200 mg/kg/day through the tail vein on Day 1. In the groups treated with the doses of 140 mg/kg/day or more, strong body weight reductions of 20% or more and death cases were observed. The recommended dose of carboplatin for mice was thus 100 mg/kg/day.
# [9] = test system: human lung cancer cell line (Lu-134); test: Lu-134 xenograft, FTD·TPI combination drug and carboplatin (Example 2); format: in vivo; conditions: Day 29, tail vein Day 1 and Day 8
# Procedure: as §2, §3
# In a similar manner to that in Example 1, to BALB/cA Jcl-nu mice to which a human lung cancer cell line (Lu-134) had been transplanted, the FTD⋅TPI combination drug or carboplatin alone, or a combination of the two was administered, and enhancement of the anti-tumor effect was examined.
# The FTD⋅TPI combination drug (a mixture of FTD and TPI at a molar ratio of 1:0.5) was prepared for administration at doses of 75 and 150 mg/kg/day in terms of FTD. Carboplatin (Paraplatin inj., Bristol-Myers) was prepared for administration at doses of 50 and 100 mg/kg/day. The FTD⋅TPI combination drug was orally administered on Days 1 to 14 consecutively, and carboplatin was administered through the tail vein on Day 1 and Day 8. In the combination administration groups, the doses and administration schedules of the FTD⋅TPI combination drug and carboplatin were the same as those of the corresponding monotherapy groups. The TV and body weight of each group were measured on Days 4, 8, 11, 15, 19, 22, 26, and 29, and the anti-tumor effect and side effects were evaluated.
structure (smiles),measurement,setting,value
"N.N.[Cl][Pt][Cl] [Cisplatin (CDDP), (SP-4-2)-diamminedichloroplatinum]",body weight reduction,"[1]; 7 mg/kg/day, tail vein Day 1 and Day 8",≤ 20%
same,recommended dose for mice,"[1]; tail vein, Day 1 and Day 8",7 mg/kg/day
same,IR (tumor growth inhibition rate),[2]; 3.5 mg/kg/day,21.0%
same,RTV (mean ± SD),[2]; 3.5 mg/kg/day,29.12 ± 2.79
same,IR (tumor growth inhibition rate),[2]; 7.0 mg/kg/day,49.6%
same,RTV (mean ± SD),[2]; 7.0 mg/kg/day,18.56 ± 4.64
"O=C1[O][Pt]2([NH][C@@H]3CCCC[C@H]3[NH]2)[O]C1=O [Oxaliplatin (l-OHP), [(1R,2R)-cyclohexane-1,2-diamine](ethanedioato-O,O′)platinum(II)]",body weight reductions,[3]; doses of 15 mg/kg/day or more,≥ 20%
same,recommended dose for mice,[3],12 mg/kg/day
same,IR (tumor growth inhibition rate),[4]; 6 mg/kg/day,36.4%
same,RTV (mean ± SD),[4]; 6 mg/kg/day,6.99 ± 0.32
same,IR (tumor growth inhibition rate),[4]; 12 mg/kg/day,55.0%
same,RTV (mean ± SD),[4]; 12 mg/kg/day,4.94 ± 0.53
same,"RTV5 (the period, RTV reaches 5)",[5]; 7 mg/kg/day,8.9 ± 0.4 days
same,"RTV5 (the period, RTV reaches 5)",[5]; 12 mg/kg/day,10.0 ± 0.8^$ days
same,IR (tumor growth inhibition rate),[5]; 7 mg/kg/day,22.1%
same,RTV (mean ± SD),[5]; 7 mg/kg/day,47.63 ± 4.33
same,IR (tumor growth inhibition rate),[5]; 12 mg/kg/day,36.7%
same,RTV (mean ± SD),[5]; 12 mg/kg/day,"38.72 ± 3.69*^,#"
same,"RTV5 (the period, RTV reaches 5)",[6]; 7 mg/kg/day,15.8 ± 0.6^$ days
same,"RTV5 (the period, RTV reaches 5)",[6]; 12 mg/kg/day,18.5 ± 0.8^$ days
same,IR (tumor growth inhibition rate),[6]; 7 mg/kg/day,20.7%
same,RTV (mean ± SD),[6]; 7 mg/kg/day,12.67 ± 0.74
same,IR (tumor growth inhibition rate),[6]; 12 mg/kg/day,35.8%
same,RTV (mean ± SD),[6]; 12 mg/kg/day,10.25 ± 0.87
same,"RTV5 (the period, RTV reaches 5)",[7]; 7 mg/kg/day,18.6 ± 1.4^$ days
same,"RTV5 (the period, RTV reaches 5)",[7]; 12 mg/kg/day,20.1 ± 1.3^$ days
same,IR (tumor growth inhibition rate),[7]; 7 mg/kg/day,33.7%
same,RTV (mean ± SD),[7]; 7 mg/kg/day,11.23 ± 1.60
same,IR (tumor growth inhibition rate),[7]; 12 mg/kg/day,40.5%
same,RTV (mean ± SD),[7]; 12 mg/kg/day,10.08 ± 1.77
"N.N.O=C([O-])C1(C(=O)[O-])CCC1.[Pt+2] [Carboplatin (CBDCA), cis-diammine (1,1-cyclobutanedicarboxylato)-platinum (II)]",body weight reductions,[8]; doses of 140 mg/kg/day or more,≥ 20%
same,death,[8]; doses of 140 mg/kg/day or more,death cases
same,recommended dose for mice,[8],100 mg/kg/day
same,IR (tumor growth inhibition rate),[9]; 50 mg/kg/day,25.3%
same,RTV (mean ± SD),[9]; 50 mg/kg/day,26.86 ± 2.44
same,IR (tumor growth inhibition rate),[9]; 100 mg/kg/day,57.2%
same,RTV (mean ± SD),[9]; 100 mg/kg/day,15.40 ± 4.38
